Tests used:
Assay in all cases: scanMAX KINOMEscan (Eurofins)
Type in all cases: binding
CAMK2A = CAMK2A (Homo sapiens, UniProt Q9UQM7); conditions: 1000 nM, read-out: Percent Control
Excerpt: (§1) Supplement cb5c00097_si_002.xlsx, sheet "Table S6 (Eurofins Selectivity)" | column: Percent Control

SBK1 = SBK1 (Homo sapiens, UniProt Q52WX2); conditions: compound concentration 100 nM; Entrez SBK1; read-out: Percent Control
Excerpt: as §1

NLK = NLK (Homo sapiens, UniProt Q9UBE8); conditions: 1000 nM, read-out: Percent Control
Excerpt: as §1

FES = FES (Homo sapiens, UniProt P07332); conditions: read-out: Percent Control
Sequence of FES (P07332 whole entry): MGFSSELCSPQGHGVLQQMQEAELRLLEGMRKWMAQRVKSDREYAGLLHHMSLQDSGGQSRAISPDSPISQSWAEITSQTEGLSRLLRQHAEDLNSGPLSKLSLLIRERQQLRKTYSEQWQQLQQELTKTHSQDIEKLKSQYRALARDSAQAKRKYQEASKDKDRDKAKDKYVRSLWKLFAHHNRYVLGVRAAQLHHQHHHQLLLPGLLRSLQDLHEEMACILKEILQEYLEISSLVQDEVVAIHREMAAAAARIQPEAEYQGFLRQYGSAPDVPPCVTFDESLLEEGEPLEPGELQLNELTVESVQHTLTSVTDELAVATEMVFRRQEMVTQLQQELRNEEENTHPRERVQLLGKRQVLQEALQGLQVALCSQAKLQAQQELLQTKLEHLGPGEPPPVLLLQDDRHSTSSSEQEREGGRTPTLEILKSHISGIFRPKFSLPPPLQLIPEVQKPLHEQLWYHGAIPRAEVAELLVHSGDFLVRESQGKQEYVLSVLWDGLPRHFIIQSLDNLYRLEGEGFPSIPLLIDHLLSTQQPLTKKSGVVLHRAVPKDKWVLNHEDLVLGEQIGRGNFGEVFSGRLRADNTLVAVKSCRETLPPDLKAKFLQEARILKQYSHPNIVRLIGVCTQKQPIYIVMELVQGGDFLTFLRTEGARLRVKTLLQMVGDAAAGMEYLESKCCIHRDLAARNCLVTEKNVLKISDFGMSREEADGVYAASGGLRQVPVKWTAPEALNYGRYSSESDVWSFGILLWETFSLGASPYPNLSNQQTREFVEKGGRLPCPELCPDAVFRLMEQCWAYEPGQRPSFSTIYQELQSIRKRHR
Excerpt: as §1

NEK10 = NEK10 (Homo sapiens, UniProt Q6ZWH5); conditions: 1000 nM, read-out: Percent Control
Excerpt: as §1

TSSK1B = TSSK1B (Homo sapiens, UniProt Q9BXA7); conditions: 1000 nM, read-out: Percent Control
Excerpt: as §1

MEK2 = MEK2 (Homo sapiens, UniProt P36507); conditions: compound concentration 100 nM; Entrez MAP2K2; read-out: Percent Control
Excerpt: as §1

MLK2 = MLK2 (Homo sapiens, UniProt Q02779); conditions: 1000 nM, read-out: Percent Control
Excerpt: as §1

TBK1 = TBK1 (Homo sapiens, UniProt Q9UHD2); conditions: 1000 nM, read-out: Percent Control
Excerpt: as §1

MAP4K3 = MAP4K3 (Homo sapiens, UniProt Q8IVH8); conditions: 1000 nM, read-out: Percent Control
Excerpt: as §1

PAK1 = PAK1 (Homo sapiens, UniProt Q13153); conditions: 1000 nM, read-out: Percent Control
Excerpt: as §1

GRK4 = GRK4 (Homo sapiens, UniProt P32298); conditions: 1000 nM, read-out: Percent Control
Excerpt: as §1

PIK3CG = PIK3CG (Homo sapiens, UniProt P48736); conditions: 1000 nM, read-out: Percent Control
Excerpt: as §1

RIOK2 = RIOK2 (Homo sapiens, UniProt Q9BVS4); conditions: compound concentration 100 nM; Entrez RIOK2; read-out: Percent Control
Excerpt: as §1

PIP5K2B = PIP5K2B (Homo sapiens, UniProt P78356); conditions: 1000 nM, read-out: Percent Control
Excerpt: as §1

PFCDPK1(P.falciparum) = PFCDPK1(P.falciparum) (Plasmodium falciparum, UniProt P62344); conditions: compound concentration 100 nM; Entrez CDPK1; read-out: Percent Control
Excerpt: as §1

ERK8 = ERK8 (Homo sapiens, UniProt Q8TD08); conditions: read-out: Percent Control
Sequence of ERK8 (Q8TD08 whole entry): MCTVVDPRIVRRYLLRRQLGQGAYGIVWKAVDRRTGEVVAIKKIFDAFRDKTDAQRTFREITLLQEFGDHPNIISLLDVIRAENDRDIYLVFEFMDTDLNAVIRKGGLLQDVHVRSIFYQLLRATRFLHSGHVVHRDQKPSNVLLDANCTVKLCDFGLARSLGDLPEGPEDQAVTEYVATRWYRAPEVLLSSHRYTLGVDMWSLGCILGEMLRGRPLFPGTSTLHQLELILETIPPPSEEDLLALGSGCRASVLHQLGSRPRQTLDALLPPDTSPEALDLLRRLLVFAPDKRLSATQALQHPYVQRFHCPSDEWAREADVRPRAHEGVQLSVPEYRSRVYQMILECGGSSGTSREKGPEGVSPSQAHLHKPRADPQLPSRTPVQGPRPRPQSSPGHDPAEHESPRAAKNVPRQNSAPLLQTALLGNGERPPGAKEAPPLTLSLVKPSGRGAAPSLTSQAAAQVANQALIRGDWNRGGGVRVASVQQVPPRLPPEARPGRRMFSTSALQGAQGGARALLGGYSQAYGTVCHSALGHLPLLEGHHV
Excerpt: as §1

AMPK-alpha1 = AMPK-alpha1 (Homo sapiens, UniProt Q13131); conditions: 1000 nM, read-out: Percent Control
Excerpt: as §1

ACVR2A = ACVR2A (Homo sapiens, UniProt P27037); conditions: read-out: Percent Control
Sequence of ACVR2A (P27037 20-513): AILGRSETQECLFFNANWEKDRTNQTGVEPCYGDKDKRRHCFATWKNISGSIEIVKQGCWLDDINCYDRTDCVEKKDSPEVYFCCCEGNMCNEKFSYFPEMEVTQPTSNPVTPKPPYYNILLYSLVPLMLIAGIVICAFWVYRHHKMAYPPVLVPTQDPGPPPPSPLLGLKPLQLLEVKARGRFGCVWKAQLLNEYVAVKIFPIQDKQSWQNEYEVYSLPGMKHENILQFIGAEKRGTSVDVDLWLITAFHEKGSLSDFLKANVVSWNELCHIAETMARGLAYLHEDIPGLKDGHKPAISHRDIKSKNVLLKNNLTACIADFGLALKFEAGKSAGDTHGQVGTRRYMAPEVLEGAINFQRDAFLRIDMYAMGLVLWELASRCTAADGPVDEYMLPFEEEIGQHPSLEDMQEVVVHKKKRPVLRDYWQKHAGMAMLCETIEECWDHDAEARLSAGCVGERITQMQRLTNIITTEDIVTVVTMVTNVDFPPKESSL
Excerpt: as §1

DRAK2 = DRAK2 (Homo sapiens, UniProt O94768); conditions: 1000 nM, read-out: Percent Control
Excerpt: as §1

FAK = FAK (Homo sapiens, UniProt Q05397); conditions: 1000 nM, read-out: Percent Control
Excerpt: as §1

[1] = biological target: JAK2(JH1domain-catalytic) (Homo sapiens, UniProt O60674); conditions: compound concentration 100 nM; Entrez JAK2; read-out: Percent Control
Excerpt: as §1

SGK3 = SGK3 (Homo sapiens, UniProt Q96BR1); conditions: 1000 nM, read-out: Percent Control
Excerpt: as §1

CDC2L2 = CDC2L2 (Homo sapiens, UniProt Q9UQ88); conditions: 1000 nM, read-out: Percent Control
Excerpt: as §1

CDK4 = CDK4 (Homo sapiens, UniProt P11802); conditions: 1000 nM, read-out: Percent Control
Excerpt: as §1

TRPM6 = TRPM6 (Homo sapiens, UniProt Q9BX84); conditions: compound concentration 100 nM; Entrez TRPM6; read-out: Percent Control
Excerpt: as §1

[2] = biological target: RSK2(Kin.Dom.2-C-terminal) (Homo sapiens, UniProt P51812); conditions: 1000 nM, read-out: Percent Control
Excerpt: as §1

EPHA4 = EPHA4 (Homo sapiens, UniProt P54764); conditions: read-out: Percent Control
Sequence of EPHA4 (P54764 20-986): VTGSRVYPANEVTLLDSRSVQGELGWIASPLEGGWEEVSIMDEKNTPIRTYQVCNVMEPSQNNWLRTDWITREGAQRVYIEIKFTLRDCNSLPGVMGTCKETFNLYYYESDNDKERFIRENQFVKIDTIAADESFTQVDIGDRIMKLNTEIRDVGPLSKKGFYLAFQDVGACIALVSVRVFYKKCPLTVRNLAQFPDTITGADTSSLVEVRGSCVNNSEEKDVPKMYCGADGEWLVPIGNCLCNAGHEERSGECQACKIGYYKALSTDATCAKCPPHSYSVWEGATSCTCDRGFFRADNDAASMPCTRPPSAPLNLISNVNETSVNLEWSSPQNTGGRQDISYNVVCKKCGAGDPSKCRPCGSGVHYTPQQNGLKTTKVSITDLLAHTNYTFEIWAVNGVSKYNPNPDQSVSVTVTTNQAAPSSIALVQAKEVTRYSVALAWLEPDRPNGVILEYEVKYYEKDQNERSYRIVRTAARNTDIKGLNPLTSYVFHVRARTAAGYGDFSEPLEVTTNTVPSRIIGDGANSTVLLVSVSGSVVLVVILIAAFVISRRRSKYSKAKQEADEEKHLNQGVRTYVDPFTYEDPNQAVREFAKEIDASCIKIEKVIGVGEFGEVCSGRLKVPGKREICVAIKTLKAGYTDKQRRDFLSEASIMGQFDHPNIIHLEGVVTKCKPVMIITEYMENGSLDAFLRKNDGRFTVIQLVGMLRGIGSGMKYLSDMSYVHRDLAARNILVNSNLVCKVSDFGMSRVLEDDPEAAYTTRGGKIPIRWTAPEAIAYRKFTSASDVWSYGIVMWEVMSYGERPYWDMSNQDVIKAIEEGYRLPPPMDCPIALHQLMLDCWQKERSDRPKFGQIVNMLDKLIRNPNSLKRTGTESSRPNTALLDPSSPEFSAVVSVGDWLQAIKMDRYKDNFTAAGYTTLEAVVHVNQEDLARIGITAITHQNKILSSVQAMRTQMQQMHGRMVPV
Excerpt: as §1

[3] = biological target: RSK3(Kin.Dom.1-N-terminal) (Homo sapiens, UniProt Q15349); conditions: 1000 nM, read-out: Percent Control
Excerpt: as §1

PAK7 = PAK7 (Homo sapiens, UniProt Q9P286); conditions: 1000 nM, read-out: Percent Control
Excerpt: as §1

p38-delta = p38-delta (Homo sapiens, UniProt O15264); conditions: compound concentration 100 nM; Entrez MAPK13; read-out: Percent Control
Excerpt: as §1

ZAK = ZAK (Homo sapiens, UniProt Q9NYL2); conditions: compound concentration 100 nM; Entrez ZAK; read-out: Percent Control
Excerpt: as §1

DCAMKL1 = DCAMKL1 (Homo sapiens, UniProt O15075); conditions: read-out: Percent Control
Sequence of DCAMKL1 (O15075 whole entry): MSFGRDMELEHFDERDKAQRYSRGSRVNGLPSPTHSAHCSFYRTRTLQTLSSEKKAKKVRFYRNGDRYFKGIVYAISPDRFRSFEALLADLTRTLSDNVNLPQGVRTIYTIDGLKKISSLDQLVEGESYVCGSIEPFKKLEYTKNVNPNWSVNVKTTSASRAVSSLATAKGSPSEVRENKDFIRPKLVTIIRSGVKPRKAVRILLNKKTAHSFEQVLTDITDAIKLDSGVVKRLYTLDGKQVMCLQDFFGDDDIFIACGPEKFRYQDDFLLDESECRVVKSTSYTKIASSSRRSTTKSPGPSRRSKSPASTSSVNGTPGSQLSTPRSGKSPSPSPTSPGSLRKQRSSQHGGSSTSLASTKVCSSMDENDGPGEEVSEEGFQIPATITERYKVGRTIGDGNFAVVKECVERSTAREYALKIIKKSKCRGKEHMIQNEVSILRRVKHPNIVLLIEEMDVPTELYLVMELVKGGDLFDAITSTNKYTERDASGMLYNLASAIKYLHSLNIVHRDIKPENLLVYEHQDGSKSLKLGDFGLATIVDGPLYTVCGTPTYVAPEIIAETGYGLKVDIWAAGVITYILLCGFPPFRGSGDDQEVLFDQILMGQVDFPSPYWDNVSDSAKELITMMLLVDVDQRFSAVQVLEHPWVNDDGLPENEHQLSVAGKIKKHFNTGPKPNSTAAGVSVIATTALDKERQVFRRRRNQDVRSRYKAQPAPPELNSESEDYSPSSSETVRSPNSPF
Excerpt: as §1

SNARK = SNARK (Homo sapiens, UniProt Q9H093); conditions: 1000 nM, read-out: Percent Control
Sequence of SNARK (Q9H093 whole entry): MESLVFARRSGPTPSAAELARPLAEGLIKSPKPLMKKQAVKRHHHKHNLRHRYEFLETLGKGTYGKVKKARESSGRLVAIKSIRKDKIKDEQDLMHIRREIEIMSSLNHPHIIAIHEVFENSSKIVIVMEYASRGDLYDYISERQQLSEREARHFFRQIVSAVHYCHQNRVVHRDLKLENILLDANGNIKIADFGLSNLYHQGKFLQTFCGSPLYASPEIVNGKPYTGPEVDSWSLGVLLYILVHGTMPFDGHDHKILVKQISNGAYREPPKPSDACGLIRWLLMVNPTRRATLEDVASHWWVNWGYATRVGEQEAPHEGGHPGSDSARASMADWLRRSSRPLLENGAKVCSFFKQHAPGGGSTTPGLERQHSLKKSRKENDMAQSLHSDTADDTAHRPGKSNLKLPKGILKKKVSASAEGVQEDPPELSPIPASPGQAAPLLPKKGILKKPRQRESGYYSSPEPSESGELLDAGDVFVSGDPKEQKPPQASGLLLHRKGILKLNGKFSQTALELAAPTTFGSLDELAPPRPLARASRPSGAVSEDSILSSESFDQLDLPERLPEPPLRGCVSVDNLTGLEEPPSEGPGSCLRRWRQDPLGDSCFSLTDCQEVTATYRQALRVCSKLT
Excerpt: as §1

BRAF = BRAF (Homo sapiens, UniProt P15056); conditions: 1000 nM, read-out: Percent Control
Excerpt: as §1

TLK2 = TLK2 (Homo sapiens, UniProt Q86UE8); conditions: compound concentration 100 nM; Entrez TLK2; read-out: Percent Control
Sequence of TLK2 (Q86UE8 whole entry): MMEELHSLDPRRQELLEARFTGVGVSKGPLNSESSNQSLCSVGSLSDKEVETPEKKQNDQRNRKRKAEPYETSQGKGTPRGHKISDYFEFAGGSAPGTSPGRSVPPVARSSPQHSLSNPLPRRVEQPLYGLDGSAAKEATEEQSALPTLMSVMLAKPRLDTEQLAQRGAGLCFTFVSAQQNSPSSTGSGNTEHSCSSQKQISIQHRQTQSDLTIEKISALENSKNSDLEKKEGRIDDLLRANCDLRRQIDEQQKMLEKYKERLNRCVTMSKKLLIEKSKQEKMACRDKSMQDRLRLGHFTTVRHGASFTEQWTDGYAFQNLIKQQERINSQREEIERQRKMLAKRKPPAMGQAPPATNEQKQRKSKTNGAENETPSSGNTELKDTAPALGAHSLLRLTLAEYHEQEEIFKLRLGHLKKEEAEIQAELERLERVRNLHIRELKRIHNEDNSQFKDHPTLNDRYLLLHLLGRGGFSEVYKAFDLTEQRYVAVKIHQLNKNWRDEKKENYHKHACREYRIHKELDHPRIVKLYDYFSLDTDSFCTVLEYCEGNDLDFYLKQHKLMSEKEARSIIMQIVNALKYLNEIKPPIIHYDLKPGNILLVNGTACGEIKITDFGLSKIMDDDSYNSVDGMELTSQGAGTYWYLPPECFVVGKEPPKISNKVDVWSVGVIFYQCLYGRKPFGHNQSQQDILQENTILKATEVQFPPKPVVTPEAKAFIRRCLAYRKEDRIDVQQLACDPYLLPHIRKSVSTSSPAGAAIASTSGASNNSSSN
Excerpt: as §1

CN1C(=O)[C@@H](N2CCc3c(nn(Cc4ccccc4)c3C(N)=O)C2=O)COc2cc(Cl)ccc21 [Compound 10, (S)-2-benzyl-6-(8-chloro-5-methyl-4-oxo-2,3,4,5-tetrahydrobenzo[b][1,4]oxazepin-3-yl)-7-oxo-4,5,6,7-tetrahydro-2H-pyrazolo[3,4-c]pyridine-3-carboxamide]
remaining binding at 1 µM (CAMK2A): 90% | remaining binding at 0.1 µM (SBK1): 68% | remaining binding at 1 µM (NLK): 98% | remaining binding at 1 µM (FES; 1000 nM): 100% | remaining binding at 0.1 µM (FES; compound concentration 100 nM, Entrez FES): 100% | remaining binding at 1 µM (NEK10): 94% | remaining binding at 1 µM (TSSK1B): 82% | remaining binding at 0.1 µM (MEK2): 94% | remaining binding at 1 µM (MLK2): 94% | remaining binding at 1 µM (TBK1): 94% | remaining binding at 1 µM (MAP4K3): 92% | remaining binding at 1 µM (PAK1): 76% | remaining binding at 1 µM (GRK4): 75% | remaining binding at 1 µM (PIK3CG): 90% | remaining binding at 0.1 µM (RIOK2): 94% | remaining binding at 1 µM (PIP5K2B): 73% | remaining binding at 0.1 µM (PFCDPK1(P.falciparum)): 97% | remaining binding at 1 µM (ERK8; 1000 nM): 100% | remaining binding at 0.1 µM (ERK8; compound concentration 100 nM, Entrez MAPK15): 82% | remaining binding at 1 µM (AMPK-alpha1): 87% | remaining binding at 1 µM (ACVR2A; 1000 nM): 100% | remaining binding at 0.1 µM (ACVR2A; compound concentration 100 nM, Entrez ACVR2A): 100% | remaining binding at 1 µM (DRAK2): 82% | remaining binding at 1 µM (FAK): 90% | remaining binding at 0.1 µM [1]: 81% | remaining binding at 1 µM (SGK3): 90% | remaining binding at 1 µM (CDC2L2): 86% | remaining binding at 1 µM (CDK4): 76% | remaining binding at 0.1 µM (TRPM6): 100% | remaining binding at 1 µM [2]: 88% | remaining binding at 1 µM (EPHA4; 1000 nM): 100% | remaining binding at 0.1 µM (EPHA4; compound concentration 100 nM, Entrez EPHA4): 99% | remaining binding at 1 µM [3]: 93% | remaining binding at 1 µM (PAK7): 91% | remaining binding at 0.1 µM (p38-delta): 79% | remaining binding at 0.1 µM (ZAK): 89% | remaining binding at 1 µM (DCAMKL1; 1000 nM): 100% | remaining binding at 0.1 µM (DCAMKL1; compound concentration 100 nM, Entrez DCLK1): 92% | remaining binding at 1 µM (SNARK): 92% | remaining binding at 1 µM (BRAF): 79% | remaining binding at 0.1 µM (TLK2): 82%
